Measurements published in article PMC11335710 (GeroScience, 2024).
Entries after “also recorded” stand apart in the source; their conditions may differ. Ends that are not written are not given here.

What was measured:
in vivo = conditions: both, Macaca mulatta
6-OHDA lesioned rats = conditions: rats with unilateral medial forebrain bundle 6-OHDA lesion; cited from earlier work
[1] = cited from earlier work
[2] = tested on: organic anion transporter 3 (hOAT3); conditions: in relation to renal clearance; cited from earlier work
[3] = Plasma sitagliptin pharmacokinetics in nonhuman primates (LC-MS, noncompartmental analysis)
Procedure: Animals included Macaca mulatta of 7 to 20 kg weight, mixed gender, 12 to 19 years of age (n = 5 to 7 per group). […] Commercially prepared monkey chow was distributed twice per day along with daily food enrichment, and water was available ad libitum. Monkeys were observed daily for food consumption and overall well-being.
(§1) Immediately thereafter, an oral glucose tolerance test was performed to stimulate incretin secretion. This is designated as time zero (i.e., 0) in Figs. 2, 4 and 5.
(§2) Further samples were collected without the inhibitor for DPP-4 analysis to permit quantification of DPP-4 inhibition. Incretin levels were measured with the following assays: Active GLP-1 ((ver 2 kit) Meso Scale Diagnostic), Active GIP (ELISA kit—IBL America), DPP-4 activity was evaluated by fluorometric assay using a DPPIV/CD26 assay kit for biological samples ((BML-AK498-0001) Enzo Life Sciences, Farmingdale, NY).
A noncompartmental approach to pharmacokinetic analysis was employed using Phoenix WinNonlin v8.3 (Certara Corp, Cary, NC). The maximum plasma concentration (Cmax) and the time of maximum plasma concentration (Tmax) were recorded as observed values. […] AUCINF (the AUC from time zero to infinity) was calculated by extrapolation by dividing Clast (the last measurable drug concentration) by the rate constant of the terminal phase, lZ (Kel). This constant was determined from the slope of the terminal phase of the concentration–time curve using uniformly weighted least squares as the estimation procedure and acceptance criteria of (i) adjusted r^2 > 0.8 and (ii) includes > 3 time points in the terminal phase.

GLP-1 and GIP = experiment: CSF GLP-1 and GIP levels in NHPs (both incretins, summary in text); type: in vivo, Macaca mulatta; conditions: CSF at 3 and 5 h after day 6 sitagliptin, NHP
Procedure: as §1, §2

[4] = parameters: method as in Reference 33 within 44; conditions: Merck's data on file; ref Reference 33 within 44; cited from earlier work
p-glycoprotein = conditions: in relation to renal clearance; cited from earlier work
[5] = tested on: SH-SY5Y human neuroblastoma cells; experiment: 6-OHDA-mediated cell loss in SH-SY5Y cells (TOPRO-3 cell density); type: cell-based; conditions: 6-OHDA 100 µM 2 h, GLP-1 or GIP 10 nM, DPP-4 inhibitor 1 µM, read at 24 h
Procedure: Five minutes later, the cells were treated with vehicle or freshly prepared 6-OHDA (100 µM) for 2 h. GIP, GLP-1, and DPP-4 inhibitor or vehicle were added to the media again after three washes. […] The cells were then washed in PBS for three times and, thereafter, were imaged using a Licor Odyssey IR scanner. Cell density in each well was analyzed by using Licor Odyssey In Cell Western analyses software v 3.0, as previously described [45].
In our study, TOPRO-3 was applied to cells after fixation with 4% PFA. The cells were washed in PBS for three times and, thereafter, were imaged using a Licor Odyssey IR scanner. Under these conditions, it is likely that any dead cells were washed away before quantifying fluorescence.

[6] = tested on: rat primary ventral mesencephalic cultures; experiment: 6-OHDA toxicity in rat primary ventral mesencephalic cultures (TH cell density); type: cell-based; conditions: rat primary VM cultures, 6-OHDA 100 µM 2 h; for Effect on 6-OHDA-mediated reduction in TH cell density: GLP-1 or GIP 10 nM, fixed 22 h after washing; for Effect of co-administered DPP-4 inhibitor on protective response of GIP and GLP-1 (TH cell density): PF-00734,200 1 µM with GLP-1 or GIP 10 nM
Description: Primary cultures were generated from embryonic (E14-15) ventral mesencephalon (VM) brain tissue removed from fetuses of timed-pregnant Sprague–Dawley rats (Charles River Laboratories, Wilmington, MA), in line with published procedures with minor modifications. Briefly, the whole brain was removed aseptically, and a small piece of tissue containing the VM was separated. Blood vessels and meninges were detached, and remaining pooled VM tissues were gently trypsinized (0.25% (Invitrogen, Carlsbad, CA), 15 min at 37°C). Trypsin was removed with pre-warmed DMEM/F-12 (Invitrogen), and cells were dissociated by trituration and then counted and plated into 96-well (6.0 × 10^4/well) cell culture plates that were pre-coated with poly-D-lysine (Sigma-Aldrich). The culture plating medium was Dulbecco’s modified Eagle medium/F12 supplemented with 10% heat-inactivated fetal bovine serum, 1 mM L-glutamine, and 2% B27 (Invitrogen). VM cells were maintained at 37°C in a humidified atmosphere (5% CO2 and 95% air) and fed by exchanging 50% of media with feed media (Neurobasal medium, Invitrogen) with 0.5 mM L-glutamate and 2% B27 with antioxidants supplement on DIV (days in vitro) 3 and 5. On DIV7, VM cultures were fed with media containing B27 supplement minus antioxidants (Invitrogen). Thereafter, freshly prepared 6-OHDA (100 µM in 20 µM ascorbic acid saline solution) or saline (with 20 µM ascorbic acid) was added to the wells on DIV 10. Following 2-h incubation, cultures were washed with feed media plus ( −) AO B27 three times. DPP-4 inhibitor (PF-00734,200), incretins, or vehicle was added to the well at the last wash as a post-treatment strategy. Cells were returned to a 37°C incubator for 22 h and then fixed with 4% paraformaldehyde (PFA) for immunoreactivity evaluation.

[7] = both, rhesus monkey, in vivo, po, 5 mg/kg
[8] = both, rhesus monkey, in vivo, po, 20 mg/kg
[9] = both, rhesus monkey, in vivo, po, 100 mg/kg

## N[C@@H](CC(=O)N1CCn2c(nnc2C(F)(F)F)C1)Cc1cc(F)c(F)cc1F [sitagliptin]
In vivo
  Kp at 3 h: 0.01
  Kp at 5 h: 0.01
6-OHDA lesioned rats
  Effect on dopaminergic neurons, dopamine levels and methamphetamine-mediated rotation: mitigated the loss of dopaminergic neurons and dopamine levels
[1]
  log P: 1.5
[2]
  Substrate for organic anion transporter 3 (hOAT3): substrate
[3]; 20 mg/kg oral once daily, day 6, NHP plasma
  Tmax: 2 h
[3]; both, Macaca mulatta, in vivo, po
  Tmax: 2 h
[3]; [7]
  AUC(0-inf): 8.81 µM·h
  AUC(0-t): 7.83 µM·h
  Cmax: 0.768 µM
  half-life: 8.4 h
  k el: 2.28e-05 s⁻¹
[3]; [8]
  AUC(0-inf): 50.9 µM·h
  AUC(0-t): 49.6 µM·h
  Cmax: 7.06 µM
  half-life: 5 h
  k el: 3.87e-05 s⁻¹
[3]; [9]
  AUC(0-inf): 214 µM·h
  AUC(0-t): 193 µM·h
  Cmax: 13.7 µM
  Tmax: 2 to 8 h
  half-life: 6.7 h
  k el: 2.85e-05 s⁻¹
[3]; both, rhesus, Macaca mulatta, in vivo, po, 5 mg/kg
  Cmax: 0.768 µM
GLP-1 and GIP
  Elevation of CSF levels of GLP-1 and GIP vs placebo: 2.0- to 3.4 fold
[4]
  Maximally well-tolerated sitagliptin dose in NHPs: 100 mg/kg
p-glycoprotein
  Substrate for p-glycoprotein: substrate

## glucose-dependent insulinotropic polypeptide [GIP]
[5]
  Effect on 6-OHDA-mediated cell loss (TOPRO-3 fluorescence cell density): significantly antagonized; also recorded: ameliorated; also recorded: fully protected against cell loss
[6]
  Effect on 6-OHDA-mediated reduction in TH cell density: partially but significantly mitigated; also recorded: significant amelioration

## glucagon-like peptide-1 (HAEGTFTSDVSSYLEGQAAKEFIAWLVKGR; ends and bridges not checked; UniProt P01275 98-127, looked up) [GLP-1, endogenous incretin hormone added to cultures at 10 nM]
[5]
  Effect on 6-OHDA-mediated cell loss (TOPRO-3 fluorescence cell density): partially mitigated; also recorded: ameliorated
[6]
  Effect on 6-OHDA-mediated reduction in TH cell density: partially but significantly mitigated
[6]; listed as GLP‐1
  Effect on 6-OHDA-mediated reduction in TH cell density: significant amelioration

## O=C([C@@H]1C[C@H](N2CCN(c3ncccn3)CC2)CN1)N1CCC(F)(F)C1 [PF-00734,200, gosogliptin]
6-OHDA lesioned rats
  Effect on dopaminergic neurons, dopamine levels and methamphetamine-mediated rotation: mitigated the loss of dopaminergic neurons and dopamine levels
[5]; listed as DPP-4I
  Effect on 6-OHDA-mediated cell loss (TOPRO-3 fluorescence cell density): ameliorated
[5]; listed as DPP-4 inhibitor
  Effect on 6-OHDA-mediated cell loss (TOPRO-3 fluorescence cell density): partially mitigated
[6]
  Effect of co-administered DPP-4 inhibitor on protective response of GIP and GLP-1 (TH cell density): significantly potentiated
[6]; listed as DPP-4I
  Effect of co-administered DPP-4 inhibitor on protective response of GIP and GLP-1 (TH cell density): further reduced
